Literature values in patent EP3721896B1, “EPIDERMAL GROWTH FACTOR (EGF) AND VARIANTS THEREOF FOR TREATING OR PREVENTING INFLAMMATORY DEMYELINATING DISORDERS” (Scalabrino, Giuseppe, priority 2019, dated 2023).

Test system: experimental autoimmune encephalomyelitis (EAE)
Conditions: administered alone; Lewis rat; from EP1870106A2

GHRP-6
Effect on course of EAE as compared to placebo: no effect was observed
